Source: ChEMBL document CHEMBL4368885, “Quinolone-isoniazid hybrids: synthesis and preliminary in vitro cytotoxicity and anti-tuberculosis evaluation” (Medchemcomm, 2019)
≈ marks a conversion by molar mass, not a printed value.

How the values were obtained:
[1] = system: Mycobacterium tuberculosis; assay: microbe, parasite or virus in culture; settings: H37Rv
Description: Antitubercular activity against Mycobacterium tuberculosis H37Rv after 7 to 14 days by broth micro dilution method

[2] = Cytotoxicity against human HeLa cells assessed as cell viability at 20 uM after 24 hrs by resazurin dye-based fluorescence assay relative to control; settings: read-out: Activity
[3] = Intrinsic clearance in rat liver microsomes assessed per mg protein at 1 uM by LC-MS/MS analysis; assay type: ADME, Microsome
[4] = Intrinsic clearance in pooled human liver microsomes assessed per mg protein at 1 uM by LC-MS/MS analysis; assay type: ADME, Microsome
[5] = Half life in mouse liver microsomes at 1 uM by LC-MS/MS analysis; assay type: ADME, Microsome
[6] = Half life in pooled human liver microsomes at 1 uM by LC-MS/MS analysis; assay type: ADME, Microsome
[7] = Intrinsic clearance in mouse liver microsomes assessed per mg protein at 1 uM by LC-MS/MS analysis; assay type: ADME, Microsome
[8] = Metabolic stability in rat liver microsomes assessed as percentage of compound remaining at 1 uM by LC-MS/MS analysis; assay type: ADME, Microsome; settings: read-out: Stability
[9] = Hepatic extraction ratio in rat liver microsomes at 1 uM by LC-MS/MS analysis; assay type: ADME, Microsome; settings: read-out: ERH
[10] = Aqueous solubility in pH 6.5 PBS at 10 to 220 uM after 20 hrs by nephelometric analysis; assay type: physicochemical
[11] = Half life in rat liver microsomes at 1 uM by LC-MS/MS analysis; assay type: ADME, Microsome
[12] = Hepatic extraction ratio in mouse liver microsomes at 1 uM by LC-MS/MS analysis; assay type: ADME, Microsome; settings: read-out: ERH
[13] = Metabolic stability in pooled human liver microsomes assessed as percentage of compound remaining at 1 uM by LC-MS/MS analysis; assay type: ADME, Microsome; settings: read-out: Stability
[14] = Hepatic extraction ratio in pooled human liver microsomes at 1 uM by LC-MS/MS analysis; assay type: ADME, Microsome; settings: read-out: ERH
[15] = Metabolic stability in mouse liver microsomes assessed as percentage of compound remaining at 1 uM by LC-MS/MS analysis; assay type: ADME, Microsome; settings: read-out: Stability
[16] = system: HeLa; assay: Cytotoxicity against human HeLa cells assessed as reduction in cell viability after 24 hrs by resazurin dye-based fluorescence assay

Compound | MIC90 [1] | viability at 24 h, 20 µM [2] | other results
NNC(=O)c1ccncc1 [ISONIAZID] | 0.2 µM (≈ 0.0274 µg/mL) |  | 
C/C(=N\NC(=O)c1ccncc1)c1ccc2c(c1)c(=O)c(C(=O)NCCNCCO)cn2Cc1ccc(Br)cc1 | 0.8 µM (≈ 0.484 µg/mL) | < 75% | 
CO[C@H]1/C=C/O[C@@]2(C)Oc3c(C)c(O)c4c(O)c(c(/C=N/N5CCN(C)CC5)c(O)c4c3C2=O)NC(=O)/C(C)=C\C=C\[C@H](C)[C@H](O)[C@@H](C)[C@@H](O)[C@@H](C)[C@H](OC(C)=O)[C@@H]1C [RIFAMPIN] | 0.06 µM (≈ 0.0494 µg/mL) |  | 
CCn1cc(C(=O)NCCOC)c(=O)c2cc(/C(C)=N/NC(=O)c3ccncc3)ccc21 | 0.8 µM (≈ 0.348 µg/mL) | < 75% | CLH [3]: 18.7 µg/min; CLH [4]: 13.3 µg/min; half-life at 1 µM [5]: 1.33 h; half-life at 1 µM [6]: > 2.5 h; CLH [7]: 35.3 µg/min; remaining at 1 µM [8]: 87%; hepatic extraction ratio at 1 µM [9]: < 0.3; solubility kinetic at 20 h [10]: 95 µM (≈ 41.4 µg/mL); half-life at 1 µM [11]: > 2.5 h; hepatic extraction ratio at 1 µM [12]: < 0.49; remaining at 1 µM [13]: 90.6%; hepatic extraction ratio at 1 µM [14]: < 0.42; remaining at 1 µM [15]: 77%
C/C(=N\NC(=O)c1ccncc1)c1ccc2c(c1)c(=O)c(C(=O)NCCNCCO)cn2Cc1ccccc1 | 2 µM (≈ 1.05 µg/mL) | < 75% | 
C/C(=N\NC(=O)c1ccncc1)c1ccc2c(c1)c(=O)c(C(=O)NCCOCCO)cn2Cc1ccc(Br)cc1 | 2.7 µM (≈ 1.64 µg/mL) | < 75% | 
COCCNC(=O)c1cn(Cc2ccc(Cl)cc2Cl)c2ccc(/C(C)=N/NC(=O)c3ccncc3)cc2c1=O | 4.8 µM (≈ 2.72 µg/mL) | < 75% | 
CC[C@H]1CN2CCc3cc(OC)c(OC)cc3[C@@H]2C[C@@H]1C[C@H]1NCCc2cc(OC)c(OC)cc21 [EMETINE] |  |  | IC50 [16]: 0.015 µM
COCCNC(=O)c1cn(Cc2ccccc2)c2ccc(C(C)=O)cc2c1=O | 43.4 µM (≈ 16.4 µg/mL) | < 75% | 
C/C(=N\NC(=O)c1ccncc1)c1ccc2c(c1)c(=O)c(C(=O)NCCNCCO)cn2Cc1ccc(C(F)(F)F)cc1 | 1.8 µM (≈ 1.07 µg/mL) | < 75% | 
CCOC(=O)c1cn(CC)c2ccc(/C(C)=N/NC(=O)c3ccncc3)cc2c1=O | 0.2 µM (≈ 0.0813 µg/mL) | < 75% | 
CCOC(=O)c1cn(C)c2ccc(/C(C)=N/NC(=O)c3ccncc3)cc2c1=O | 0.9 µM (≈ 0.353 µg/mL) | < 75% | 
CCn1cc(C(=O)NCCCn2ccnc2)c(=O)c2cc(/C(C)=N/NC(=O)c3ccncc3)ccc21 | 7.8 µM (≈ 3.79 µg/mL) | < 75% | 
CC(=O)c1ccc2c(c1)c(=O)c(C(=O)NCCNCCO)cn2Cc1ccc(Cl)cc1Cl | 125 µM (≈ 59.5 µg/mL) | < 75% | 
